Assay results: patent US8975401B2, “Quinazoline based EGFR inhibitors containing a zinc binding moiety” (Curis, Inc., priority 2006, dated 2015)

Experiment: Pharmacokinetic study in mice (plasma, lung, colon)
Conditions: salt in 30% CAPTISOL
Method: Plasma samples were prepared by protein precipitation.
Samples were compared to standards made in plasma. These standards were prepared by serial dilution. An internal standard was added into the plasma with standard.
Tissues were homogenized in 0.8 ml water.

Question: With Citric Acid as the substance, how does the “IV Tissue” value read?
Answer: Its value is “Low”.
